The values below come from patent US11912682B2, “Isoindolinone compounds” (Monte Rosa Therapeutics, Inc., priority 2021, dated 2024).

Like-named read-outs stand apart in the source and are kept apart here.

The target of assay [1] is CRBN-DDB1 (Homo sapiens (Human), UniProt Q96SW2). Kind of assay: Homogenous Time-Resolved Fluorescence (HTRF) binding assay to CRBN. The protocol: Compound activity was monitored in a Homogenous Time-Resolved Fluorescence (HTRF) assay using 1-[5-({2-[2-(2-{[2-(2,6-dioxopiperidin-3-yl)-1,3-dioxo-2,3-dihydro-1H-isoindol-4-yl]oxy}acetamido)ethoxy]ethyl}carbamoyl)pentyl]-3,3-dimethyl-2-[(1E,3E)-5-[(2E)-1,3,3-trimethyl-5-sulfo-2,3-dihydro-1H-indol-2-ylidene]penta-1,3-dien-1-yl]-3H-indol-1-ium-5-sulfonate as a fluorescent probe. […] Compounds were stored in dry, ambient temperatures at 10 mM. A 10-point, 1:3 dilution series was prepared from 10 mM stock concentrations in Echo-compatible LDV plates. 10 nL of each compound dilution series was dispensed into assays wells using an Echo 650 (Labcyte inc. USA). […] The assay was then allowed to incubate for 30 min at ambient temperature after transferring compound. […] Analysis and IC50 values were derived using KNIME analytics (KNIME Zurich) transformation and fitting within Collaborative Drug Discovery (Collaborative Drug Discovery USA). Ki was derived from the geometric mean of the IC50 values using the Cheng-Prustoff transformation.
CRBN-DDB1, sequence (Q96SW2 whole entry): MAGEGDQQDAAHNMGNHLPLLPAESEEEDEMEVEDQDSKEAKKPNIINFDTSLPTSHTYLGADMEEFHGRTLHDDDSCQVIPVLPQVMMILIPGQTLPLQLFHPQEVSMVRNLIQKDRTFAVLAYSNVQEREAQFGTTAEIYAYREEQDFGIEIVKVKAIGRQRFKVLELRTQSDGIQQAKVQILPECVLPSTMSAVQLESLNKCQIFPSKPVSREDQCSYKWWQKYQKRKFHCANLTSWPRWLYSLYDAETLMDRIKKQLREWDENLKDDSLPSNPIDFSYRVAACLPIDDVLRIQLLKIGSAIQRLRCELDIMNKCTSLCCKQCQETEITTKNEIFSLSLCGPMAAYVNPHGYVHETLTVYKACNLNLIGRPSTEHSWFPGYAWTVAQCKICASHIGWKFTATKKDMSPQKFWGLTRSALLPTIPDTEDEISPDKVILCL
CRBN-DDB1, sequence (Q16531 whole entry partner): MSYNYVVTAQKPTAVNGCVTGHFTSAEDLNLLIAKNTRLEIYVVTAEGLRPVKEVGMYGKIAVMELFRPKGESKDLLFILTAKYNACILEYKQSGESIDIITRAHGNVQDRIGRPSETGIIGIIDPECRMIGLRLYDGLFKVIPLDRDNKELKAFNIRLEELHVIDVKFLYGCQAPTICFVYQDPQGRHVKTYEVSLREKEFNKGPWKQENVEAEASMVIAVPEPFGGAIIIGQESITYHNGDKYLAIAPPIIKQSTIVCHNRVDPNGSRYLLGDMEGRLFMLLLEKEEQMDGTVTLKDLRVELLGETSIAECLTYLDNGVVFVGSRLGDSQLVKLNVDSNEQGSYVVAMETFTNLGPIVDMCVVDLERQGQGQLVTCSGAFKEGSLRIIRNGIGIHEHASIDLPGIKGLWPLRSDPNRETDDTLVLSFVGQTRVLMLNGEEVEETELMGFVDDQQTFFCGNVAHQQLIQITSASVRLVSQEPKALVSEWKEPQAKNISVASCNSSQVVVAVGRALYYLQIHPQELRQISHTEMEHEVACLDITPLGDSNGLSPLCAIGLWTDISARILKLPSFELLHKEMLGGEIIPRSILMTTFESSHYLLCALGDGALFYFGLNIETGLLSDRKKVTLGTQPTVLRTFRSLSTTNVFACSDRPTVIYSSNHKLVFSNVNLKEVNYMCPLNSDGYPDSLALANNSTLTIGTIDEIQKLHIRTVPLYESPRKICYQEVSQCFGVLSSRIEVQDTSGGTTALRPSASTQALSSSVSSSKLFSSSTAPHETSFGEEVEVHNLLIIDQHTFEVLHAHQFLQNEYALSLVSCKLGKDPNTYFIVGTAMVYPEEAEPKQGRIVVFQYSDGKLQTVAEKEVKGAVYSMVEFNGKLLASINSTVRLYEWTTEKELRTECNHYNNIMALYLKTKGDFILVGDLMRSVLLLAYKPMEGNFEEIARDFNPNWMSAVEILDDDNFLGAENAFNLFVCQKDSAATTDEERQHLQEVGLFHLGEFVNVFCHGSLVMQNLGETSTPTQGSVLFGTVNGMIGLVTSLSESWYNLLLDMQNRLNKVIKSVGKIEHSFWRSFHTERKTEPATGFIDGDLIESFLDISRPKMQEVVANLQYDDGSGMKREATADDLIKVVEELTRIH

Assay [2] addresses T1, GSPT1 (Homo sapiens (Human), UniProt P15170+Q96SW2). Kind of assay: immunofluorescence assay for GSPT1 degradation in CAL-51 cells (Example 10). Format: cell-based. The procedure:
The representative compounds were tested in an immunofluorescence assay for their activity to degrade GSPT1. […] Compounds were stored at 10 mM DMSO stocks. […] Cells were subsequently rinsed with PBS and fixed in 10% Formalin solution (50 μl, Sigma HT5011)) for 20 mins at room temperature. […] Following three further PBS washes, 50 μL blocking buffer (1% BSA, Sigma A4503, in PBS) was added for 45 min for signal-to noise reduction. Primary antibody (human GSPT1, Sigma HPA052488) was diluted in blocking buffer (dil.1/300, 35 μL/well) and incubated with the cells overnight at 4° C. […] After three final PBS washes, samples were conserved in 100 μL PBS in the dark, until measurement. Image acquisition was performed on the Operetta High-Content Imager (Perkin-Elmer). […] For the determination of GSPT1 DC50 values, a custom algorithm implemented in the PerkinElmer image analysis software Harmony-Acapella® was developed. After user-defined setting of adjustment parameters, the analysis was run identically without human intervention for all image fields. DAPI staining of the nuclei was used to determine the location of cells using standard nuclei detection modules. Segmentation artifacts were removed by threshold-based filters for area, roundness and intensity. The outline of the cells was determined analogously from the sum of the normalized, smoothed DAPI and Actin channel, starting from each nucleus. […] GSPT1 degradation (DC50) was calculated after normalization to controls and data import in CDD vault Database, using non-linear regression.

Assay [3] has as its target T1, GSPT1. Nature of the assay: immunofluorescence assay for GSPT1 degradation in CAL-51 cells (Example 4). The class given is cell-based. The procedure, abridged: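 CAL-51 cells on fibronectin-coated plates were treated 6 h with serial dilutions (30 μM to 0.1 nM), then fixed and immunostained for GSPT1 with DAPI and phalloidin counterstains. Per-cell mean GSPT1 intensity from high-content imaging, normalized to controls; DC50 by non-linear regression.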

The target in assay [4] is IKZF1 (Ikaros) (Homo sapiens (Human), UniProt Q13422). Kind of assay: selectivity by Western blot in MM1S cells, IKZF1. Format: cell-based. Details: key to IKZF1 degradation: A represents a no degradation observed at 30 μM; B represents trace degradation at 30 μM (below 20%); C represents weak degradation at 30 μM (below 50%); D represents degradation at 30 μM (>90%); E represents degradation at 3 μM (>90%); F represents degradation at 0.3 μM (>90%). The conditions noted are these: MM1S cells, 6 hours, 0.3, 3 and 30 μM. The protocol: (§1) MM1S cells were purchased from ATCC (cat. Number CRL-2974), sub-cultured in 90% RPMI 1640 with 10% FBS, supplemented with 1× P/S and incubated at 37° C., 5% CO2. Compounds were stored as 10 mM DMSO stock. For the assay, MM1S cells (3 million cells/well) were plated in 6-well plates and incubated over night. Cells were treated with respective compounds using a serial dilution: 0.3 μM, 3 μM and 30 μM as well as a vehicle only (DMSO) control for 6 hours. Media with suspension cells was subsequently transferred to 15 mL conical tubes, wells rinsed twice with ice-cold PBS and merged with cell suspension in respective 15 mL conical tube. Cells were spinned down, supernatant aspirated, pellets resuspended in ice-cold PBS and transferred to microtubes. Cells were spinned down, supernatant aspirated and pellets resuspended in 120 μL RIPA lysis buffer supplemented with protease and phosphatase inhibitors. Cell lysates were incubated on ice for 20 minutes followed by centrifugation at >20,000 xg for 5 min. Supernatants were transferred to fresh microtubes and stored at −80° C. Total protein concentration was determined using a BCA assay with a BSA standard curve and concentration of all samples was adjusted to 1 mg/mL. 25 μL 4× LDS sample buffer supplemented with 100 mM DTT was added to 75 μL sample. Samples were centrifuged (8,000 xg, 1 min) and incubated at 95° C. for 5 min followed by another centrifugation step (8,000 xg, 1 min). 20 μL of each sample was loaded on a 4-12% gel alongside a protein molecular weight marker. Gels were run in the presence of MOPS buffer at 80 Volts for 30 min, followed by 120 Volts for 1.5 h and proteins subsequently transferred onto nitrocellulose membranes at 20 Volts for 7 min using an iBlot2 Gel Transfer Device. Membranes were then cut horizontally into two pieces, covering 80-50 kDa and 50-25 kDa. Blocking the membranes was performed by gently shaking in 5% (w/v) skim milk in TSB-T for 1 hr at room temperature. All primary antibodies were used at a 1/1000 in 5% (w/v) BSA dissolved in TBST and incubated with membranes over night at 4° C. Anti-IKZF1 (Ikaros; D6N9Y; 14859S), anti-IKZF3 (Aiolos; D1C1E; 15103S) antibodies were purchased from Cell Signalling Technology, anti-ZFP91 antibody from Bethyl laboratories, anti-GSPT1 from Sigma Aldrich (HPA052488) and anti CK1alpha from AbCam (ab206652). After three washes with 1× TBST for 5 min, HRP-coupled secondary antibodies diluted in 5% (w/v) BSA/TBST (Goat Anti-Rb IgG, dil. 1/10,000; Goat Anti-Mouse IgG, dil. 1/5000) were added for 1 hr at room temperature. After three washes with 1× TBST (5 minutes each), membranes were incubated with ECL reagent for 1 min at room temperature. Chemiluminescence signals were then detected using a LAS-4000 system with default settings and signals quantified using Image Studio Lite software (version 5.2). Membrane parts previously incubated with antibody against CK1alpha were stripped off antibodies by incubating with stripping buffer for 30 minutes followed by three washed with TBST (5 min each), blocking with 5% (w/v) skim milk for 1 hr, and incubation with primary antibody against GAPDH overnight at 4° C. Subsequent washes, incubation with secondary antibody and signal acquisition were performed as described above.
IKZF1 (Ikaros), sequence (Q13422 whole entry, looked up): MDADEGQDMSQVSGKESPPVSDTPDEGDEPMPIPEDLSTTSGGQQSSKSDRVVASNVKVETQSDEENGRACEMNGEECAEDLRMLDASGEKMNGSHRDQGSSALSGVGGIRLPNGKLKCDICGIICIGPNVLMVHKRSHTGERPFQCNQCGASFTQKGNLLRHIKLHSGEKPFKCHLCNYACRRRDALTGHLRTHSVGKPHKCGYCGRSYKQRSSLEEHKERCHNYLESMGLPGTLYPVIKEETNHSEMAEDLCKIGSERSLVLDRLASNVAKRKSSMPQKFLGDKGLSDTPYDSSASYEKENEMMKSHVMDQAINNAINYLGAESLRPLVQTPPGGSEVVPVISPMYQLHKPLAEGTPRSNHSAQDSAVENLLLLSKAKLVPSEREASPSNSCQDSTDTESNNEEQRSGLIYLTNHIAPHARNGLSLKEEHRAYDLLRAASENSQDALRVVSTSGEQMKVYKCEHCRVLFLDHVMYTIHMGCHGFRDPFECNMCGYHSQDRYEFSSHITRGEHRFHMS
A general note: Immunoblotting shows a protein as a band on a membrane.

The target in assay [5] is IKZF3 (Aiolos) (Homo sapiens (Human), UniProt Q9UKT9). Kind of assay: selectivity by Western blot in MM1S cells, IKZF3. The class given is cell-based. The conditions noted are these: MM1S cells, 6 hours, 0.3, 3 and 30 μM. More on the design: key to IKZF3 degradation: A represents a no degradation observed at 30 μM; B represents trace degradation at 30 μM (below 20%); C represents weak degradation at 30 μM (below 50%); D represents degradation at 30 μM (>90%); E represents degradation at 3 μM (>90%); F represents degradation at 0.3 μM (>90%). The procedure: as §1
IKZF3 (Aiolos), sequence (Q9UKT9 whole entry, looked up): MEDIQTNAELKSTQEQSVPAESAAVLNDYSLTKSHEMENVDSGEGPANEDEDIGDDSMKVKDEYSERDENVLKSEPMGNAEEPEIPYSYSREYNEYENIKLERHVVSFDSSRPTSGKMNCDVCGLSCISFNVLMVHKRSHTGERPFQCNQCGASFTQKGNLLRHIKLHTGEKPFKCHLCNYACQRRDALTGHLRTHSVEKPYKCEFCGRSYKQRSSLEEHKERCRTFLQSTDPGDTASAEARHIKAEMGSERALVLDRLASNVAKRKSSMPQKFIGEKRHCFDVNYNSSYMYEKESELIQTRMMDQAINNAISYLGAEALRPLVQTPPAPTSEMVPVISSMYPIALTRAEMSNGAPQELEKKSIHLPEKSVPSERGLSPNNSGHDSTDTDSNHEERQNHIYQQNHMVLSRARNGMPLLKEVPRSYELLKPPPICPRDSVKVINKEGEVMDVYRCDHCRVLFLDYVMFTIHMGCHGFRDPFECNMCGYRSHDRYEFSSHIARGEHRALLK

For assay [6], the target named is CK1alpha (Homo sapiens (Human), UniProt P48729). Kind of assay: selectivity by Western blot in MM1S cells, CK1alpha. Format: cell-based. The conditions noted are these: MM1S cells, 6 hours, 0.3, 3 and 30 μM. The protocol:
as §1

Assay [7] deals with ZFP91 (Homo sapiens (Human), UniProt Q96JP5). Kind of assay: selectivity by Western blot in MM1S cells, ZFP91. More on the design: key: A represents a no degradation observed at 30 μM; B represents trace degradation at 30 μM (below 20%); C represents weak degradation at 30 μM (below 50%); D represents degradation at 30 μM (>90%); E represents degradation at 3 μM (>90%); F represents degradation at 0.3 μM (>90%). The class given is cell-based. The conditions noted are these: 6 hours, 0.3, 3 and 30 μM. The procedure: as §1, with “After three washes with 1× TBST (5 minutes each), membranes were incubated with ECL reagent for 1 min at room temperature.” left out, “Membrane parts previously incubated with antibody against CK1alpha were stripped off antibodies by incubating with stripping buffer for 30 minutes followed by three washed with TBST (5 min each), blocking with 5% (w/v) skim milk for 1 hr, and incubation with primary antibody against GAPDH overnight at 4° C. Subsequent washes, incubation with secondary antibody and signal acquisition were performed as described above.” left out
ZFP91, sequence (Q96JP5 whole entry, looked up): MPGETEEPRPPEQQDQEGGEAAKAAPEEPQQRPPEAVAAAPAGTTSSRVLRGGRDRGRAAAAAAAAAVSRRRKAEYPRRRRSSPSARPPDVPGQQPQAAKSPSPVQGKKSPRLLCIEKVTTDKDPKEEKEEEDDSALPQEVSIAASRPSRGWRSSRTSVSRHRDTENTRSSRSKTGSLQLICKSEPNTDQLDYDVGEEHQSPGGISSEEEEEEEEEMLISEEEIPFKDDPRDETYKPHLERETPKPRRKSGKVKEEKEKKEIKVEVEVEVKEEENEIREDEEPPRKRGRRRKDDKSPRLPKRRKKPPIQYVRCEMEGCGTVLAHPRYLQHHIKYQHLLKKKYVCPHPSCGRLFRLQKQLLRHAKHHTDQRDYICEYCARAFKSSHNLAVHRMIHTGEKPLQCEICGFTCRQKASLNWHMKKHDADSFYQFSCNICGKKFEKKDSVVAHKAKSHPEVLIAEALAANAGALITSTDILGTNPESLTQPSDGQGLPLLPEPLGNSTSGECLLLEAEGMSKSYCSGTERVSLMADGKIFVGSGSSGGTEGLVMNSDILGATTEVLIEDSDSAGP

Assay [8] deals with T1, GSPT1. Kind of assay: selectivity by Western blot in MM1S cells, GSPT1. The conditions noted are these: MM1S cells, 6 hours, 0.3, 3 and 30 μM. Format: cell-based. The protocol: as §1
Target sequence in this assay (P15170 whole entry, looked up): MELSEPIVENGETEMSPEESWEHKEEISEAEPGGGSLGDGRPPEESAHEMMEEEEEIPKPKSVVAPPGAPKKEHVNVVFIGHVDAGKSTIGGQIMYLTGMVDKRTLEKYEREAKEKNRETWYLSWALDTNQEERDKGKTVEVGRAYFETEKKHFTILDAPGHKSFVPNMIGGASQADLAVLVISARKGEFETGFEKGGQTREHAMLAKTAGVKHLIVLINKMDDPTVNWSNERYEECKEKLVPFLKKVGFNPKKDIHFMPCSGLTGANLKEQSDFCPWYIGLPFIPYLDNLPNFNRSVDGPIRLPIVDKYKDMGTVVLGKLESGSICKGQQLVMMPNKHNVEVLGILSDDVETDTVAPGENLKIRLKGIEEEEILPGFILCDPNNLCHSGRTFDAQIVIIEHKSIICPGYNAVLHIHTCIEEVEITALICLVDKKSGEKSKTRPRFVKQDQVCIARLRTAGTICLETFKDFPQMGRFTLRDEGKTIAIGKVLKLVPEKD
Target sequence in this assay (Q96SW2 whole entry, looked up): as the sequence (Q96SW2 whole entry) above
Target sequence in this assay (Q16531 whole entry partner, looked up): as the sequence (Q16531 whole entry partner) above
Setting [9] is: CRBN-DDB1, HTRF, read-out: HTRF Class (HTRF IC50, Cereblon binding).
Where [10] appears, read: CAL-51 cells, 6 h; read-out: IF Class (GSPT1 degradation DC50).
[11] abbreviates: 6 hours, read-out: Activity for GSPT1 degradation, Code (DC50).
Setting [12] is: GSPT1 degradation, read-out: DC50 value.

CK1alpha, sequence (P48729 whole entry, looked up): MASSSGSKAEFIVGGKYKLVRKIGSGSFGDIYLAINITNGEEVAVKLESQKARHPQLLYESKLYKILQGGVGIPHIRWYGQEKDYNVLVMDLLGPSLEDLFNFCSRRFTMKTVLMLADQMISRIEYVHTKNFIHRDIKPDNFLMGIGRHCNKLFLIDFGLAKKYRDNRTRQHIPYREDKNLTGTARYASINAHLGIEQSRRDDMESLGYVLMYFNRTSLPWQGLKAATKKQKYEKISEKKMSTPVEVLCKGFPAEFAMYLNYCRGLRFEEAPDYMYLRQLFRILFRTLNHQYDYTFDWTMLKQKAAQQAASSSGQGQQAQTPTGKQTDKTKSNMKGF

By IC50 is commonly meant the midpoint of a concentration-inhibition curve. As a reminder, the DC50 is the concentration giving 50% degradation. Regarding `Cc1ccc(NC(=O)OCc2ccc3c(c2)C(=O)N([C@H]2CCC(=O)NC2=O)C3)cc1Cl` (single isomer, unassigned) [Compound 175], in assay [1] (setting [9]), the IC50 was > 1000 nM. The half-maximal degradation concentration (DC50) in assay [2] (setting [10]) was < 30 nM.

For `Cc1ccc(NC(=O)OCc2ccc3c(c2)C(=O)N([C@@H]2CCC(=O)NC2=O)C3)cc1Cl` (single isomer, unassigned) [Compound 176], in assay [1] (setting [9]), the IC50 was < 100 nM. In assay [2] (setting [10]), the DC50 is < 30 nM.

As for `COc1cc(C)c(Cl)cc1NC(=O)OCc1ccc2c(c1)C(=O)N(C1CCC(=O)NC1=O)C2` (stereo not shown) [Compound 1], the DC50 in assay [3] (setting [11]) was < 30 nM; in assay [3] (setting [12]), ≤ 30 nM. Besides, the IKZF1 degradation entry in assay [4] is on record as “A”. The IKZF3 degradation entry in assay [5] is recorded as “B (B represents trace degradation at 30 μM (below 20%))”. Also, in assay [6], the CK1alpha degradation result is given as “B (B represents trace degradation at 30 μM (below 20%))”. In addition, the ZFP91 degradation entry in assay [7] was “A”. Moreover, the GSPT1 degradation result in assay [8] is recorded as “F (F represents degradation at 0.3 μM (>90%))”.

With `O=C1CCC(N2Cc3ccc(COC(=O)Nc4cccc(OC(F)(F)F)c4)cc3C2=O)C(=O)N1` (stereo not shown) [Compound 3], the 50% degradation concentration (DC50) in assay [3] (setting [11]) is < 30 nM; in assay [3] (setting [12]) it was ≤ 30 nM. Moreover, the IKZF1 degradation result in assay [4] was “A”. Further, the IKZF3 degradation result in assay [5] was “A”. The CK1alpha degradation entry in assay [6] is on record as “B (B represents trace degradation at 30 μM (below 20%))”. Moreover, the ZFP91 degradation result in assay [7] was “B (B represents trace degradation at 30 μM (below 20%))”. Further, the GSPT1 degradation result in assay [8] is “F (F represents degradation at 0.3 μM (>90%))”.

As for `CC(C)(C)c1ccc(NC(=O)OCc2ccc3c(c2)C(=O)N(C2CCC(=O)NC2=O)C3)cc1` (stereo not shown) [Compound 47], the DC50 in assay [3] (setting [11]) is < 30 nM; in assay [3] (setting [12]), ≤ 30 nM. Besides, the IKZF1 degradation entry in assay [4] was “A”. Also, the IKZF3 degradation entry in assay [5] is reported as “A”. Further, the CK1alpha degradation entry in assay [6] is reported as “B (B represents trace degradation at 30 μM (below 20%))”. The ZFP91 degradation result in assay [7] is recorded as “B (B represents trace degradation at 30 μM (below 20%))”. Besides, the GSPT1 degradation entry in assay [8] is “F (F represents degradation at 0.3 μM (>90%))”.

As to `Cc1c(Cl)cc(NC(=O)OCc2ccc3c(c2)C(=O)N(C2CCC(=O)NC2=O)C3)cc1OCCN1CCOCC1` (stereo not shown) [Compound 48], the DC50 was < 30 nM in assay [3] (setting [11]) and ≤ 30 nM in assay [3] (setting [12]). In addition, in assay [4], the IKZF1 degradation result was “A”. Moreover, in assay [5], the IKZF3 degradation entry is reported as “B (B represents trace degradation at 30 μM (below 20%))”. The CK1alpha degradation entry in assay [6] is recorded as “B (B represents trace degradation at 30 μM (below 20%))”. In addition, the GSPT1 degradation result in assay [8] is “F (F represents degradation at 0.3 μM (>90%))”.

On to `CCc1ncc(NC(=O)OCc2ccc3c(c2)C(=O)N(C2CCC(=O)NC2=O)C3)cc1C` (stereo not shown) [Compound 49], for which the DC50 in assay [3] (setting [11]) was < 30 nM; in assay [3] (setting [12]), ≤ 30 nM. Moreover, the IKZF1 degradation result in assay [4] is “A”. Besides, in assay [5], the IKZF3 degradation result is “A”. Also, the CK1alpha degradation entry in assay [6] is reported as “B (B represents trace degradation at 30 μM (below 20%))”. Also, the ZFP91 degradation result in assay [7] was “B (B represents trace degradation at 30 μM (below 20%))”. Also, the GSPT1 degradation entry in assay [8] is “F (F represents degradation at 0.3 μM (>90%))”.

Consider `COc1ccc(C(F)(F)C23CC(NC(=O)OCc4ccc5c(c4)C(=O)N(C4CCC(=O)NC4=O)C5)(C2)C3)cc1` (stereo not shown) [Compound 214, (2-(2,6-dioxopiperidin-3-yl)-3-oxoisoindolin-5-yl)methyl(3-(difluoro(4-methoxyphenyl)methyl)bicyclo[1.1.1]pentan-1-yl)carbamate], for which, in assay [1], the IC50 is < 100 nM. Besides, the DC50 in assay [2] (read-out: IF Class (GSPT1 degradation DC50); CAL-51 cells, 6 h) was 30 to 300 nM.
